The results in this text go back to article PMC10803289, “Transport and inhibition mechanism of the human SGLT2–MAP17 glucose transporter” (Nature Structural & Molecular Biology, 2023).

Numbering of substitutions follows the chain as printed. “And” between values parts separate entries of the source, which are not always exact repeats. Identical values can stand only once.

One experiment has as its target T1, hSGLT2 F453A (Homo sapiens, UniProt P31639, F453A).
T1 sequence (P31639 1-672 F453A): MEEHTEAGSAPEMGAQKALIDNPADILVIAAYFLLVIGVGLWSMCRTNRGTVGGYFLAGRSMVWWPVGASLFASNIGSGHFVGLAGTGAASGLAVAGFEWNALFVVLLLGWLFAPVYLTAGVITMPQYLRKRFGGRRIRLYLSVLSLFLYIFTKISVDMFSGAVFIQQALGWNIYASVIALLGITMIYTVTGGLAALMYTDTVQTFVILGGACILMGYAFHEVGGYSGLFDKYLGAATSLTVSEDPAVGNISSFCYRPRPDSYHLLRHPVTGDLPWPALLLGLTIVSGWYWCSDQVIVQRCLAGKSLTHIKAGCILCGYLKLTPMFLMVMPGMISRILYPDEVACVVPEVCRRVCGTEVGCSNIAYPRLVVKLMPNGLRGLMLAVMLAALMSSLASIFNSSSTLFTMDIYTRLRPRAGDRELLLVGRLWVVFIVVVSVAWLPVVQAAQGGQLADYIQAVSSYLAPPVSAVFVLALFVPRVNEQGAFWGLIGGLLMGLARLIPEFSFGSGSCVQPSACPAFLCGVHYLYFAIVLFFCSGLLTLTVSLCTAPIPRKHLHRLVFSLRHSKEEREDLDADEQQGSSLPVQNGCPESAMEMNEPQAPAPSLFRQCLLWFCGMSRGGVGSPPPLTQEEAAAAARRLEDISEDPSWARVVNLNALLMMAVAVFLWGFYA
T1 sequence (Q13113 1-114 partner): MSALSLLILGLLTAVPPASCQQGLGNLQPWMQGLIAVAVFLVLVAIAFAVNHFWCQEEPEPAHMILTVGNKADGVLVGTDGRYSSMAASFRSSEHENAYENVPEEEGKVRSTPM
The experiment is described as follows: SGLT2 inhibitor-binding assay (AS-MS), crude membrane, F453A mutant. Also noted: expressed in transfected cells; host or cells: Expi293 cells, crude membrane fraction. Particulars: 30 nM canagliflozin, replicates. The source says: hSGLT2 complementary DNA and human MAP17 cDNA were synthesized and codon-optimized for expression in human cell lines. Both cDNAs were cloned into the pcDNA3.4 vector. The hSGLT2 sequence was fused with an N-terminal signal sequence from human trypsinogen 1, a His10 tag, and sfGFP, followed by a human rhinovirus 3C protease (HRV3C protease) recognition site. Point mutations were introduced into this construct using site-directed mutagenesis. These plasmids were utilized for all experimental procedures conducted in this study.
To examine the inhibition of binding to the crude membrane, mammalian Expi293 cells were co-transfected with the hMAP17 and hSGLT2 plasmids, as described. […] The extract solution from the filter plate was diluted with water containing candesartan as an internal standard, and the SGLT2 inhibitor concentration was quantified via LC–MS/MS.
Nonspecific binding was measured using the crude membrane of nontransfected Expi293 cells. Specific binding was calculated by subtracting nonspecific binding from the binding of hSGLT2-expressing cells. Specific binding was normalized to hSGLT2 protein expression levels, measured via FSEC. The equilibrium dissociation constant (Kd) and maximum number of binding sites (Bmax) were calculated via nonlinear regression in GraphPad Prism 8.4.3. […]

The target in experiment [1] is T2, wild-type hSGLT2 (membrane fraction of hSGLT2 and MAP17 expressing cells) (Homo sapiens, UniProt P31639).
T2 construct: expressed in transfected cells; host or cells: Expi293 cells, crude membrane fraction
T2 sequence (P31639 1-672): T1 sequence (P31639 1-672 F453A) with A453F
T2 sequence (Q13113 1-114 partner): T1 sequence (Q13113 1-114 partner)
The experiment is described as follows: SGLT2 inhibitor-binding assay via affinity selection–mass spectrometry, crude membrane, WT. Here is the method:
To examine the inhibition of binding to the crude membrane, mammalian Expi293 cells were co-transfected with the hMAP17 and hSGLT2 plasmids, as described. The cells were collected and disrupted by sonication in a hypotonic buffer (50 mM HEPES–NaOH (pH 7.5), 10 mM KCl and protease inhibitor cocktail) or Na^+-free hypotonic buffer (50 mM Tris–HCl (pH 7.5), 10 mM KCl and protease inhibitor cocktail). The cell debris were removed by centrifugation (2,000g, 5 min, 4 °C). The membrane fraction was collected by ultracentrifugation (112,000g, 30 min, 4 °C) and stored at −80 °C before use. The crude membrane (250 μg per sample) was incubated with SGLT2 inhibitor in an assay buffer (100 mM NaCl and 10 mM HEPES/Tris, pH 7.4) or Na^+-free assay buffer (100 mM choline chloride and 10 mM HEPES/Tris, pH 7.4) at room temperature for 2 h. Reactions were terminated by filtration through a GF/C filter plate (Corning) presoaked in assay buffer containing 0.1% bovine serum albumin. The sample in the filter plate was washed three times with the assay buffer and eluted with acetonitrile: water (80:20, v/v). The extract solution from the filter plate was diluted with water containing candesartan as an internal standard, and the SGLT2 inhibitor concentration was quantified via LC–MS/MS.
Nonspecific binding was measured using the crude membrane of nontransfected Expi293 cells. Specific binding was calculated by subtracting nonspecific binding from the binding of hSGLT2-expressing cells. Specific binding was normalized to hSGLT2 protein expression levels, measured via FSEC. The equilibrium dissociation constant (Kd) and maximum number of binding sites (Bmax) were calculated via nonlinear regression in GraphPad Prism 8.4.3. The specific binding of the hSGLT2 mutants was normalized to the Bmax of WT hSGLT2.
The concentrations of the extract solution from the filter plate and of the cell lysate were quantified using a tandem mass spectrometry QTRAP6500 System (SCIEX) coupled with an ACQUITY UPLC system (Waters) using the internal standard method. Mobile phases A and B used 10 mM of ammonium bicarbonate and acetonitrile, respectively.

On to `Cc1ccc([C@@H]2O[C@H](CO)[C@@H](O)[C@H](O)[C@H]2O)cc1Cc1ccc(-c2ccc(F)cc2)s1` [Canagliflozin], for which the “Canagliflozin binding (% of WT)” value on hSGLT2 F453A is 4.952 % of WT and 11.6565 % of WT and 16.2768 % of WT; in experiment [1] (30 nM canagliflozin, WT, replicates), 95.0024 % of WT and 98.5721 % of WT and 106.426 % of WT. The “Canagliflozin binding (% of hSGLT2)” value in experiment [1] (30 nM canagliflozin, hSGLT2 membrane) was 85.124 % of hSGLT2 and 96.4187 % of hSGLT2 and 118.457 % of hSGLT2. Besides, the Bmax in experiment [1] (Na(+), mean ± SEM n=3) is 1.91 ± 0.16 pmol/mg-protein; in experiment [1] (Na(-), mean ± SEM n=3) it was 1.33 ± 0.12 pmol/mg-protein. The Kd (commonly the constant that tells how readily two partners part at equilibrium) in experiment [1] (Na(+), mean ± SEM n=3) is 94 ± 21.8 nM; in experiment [1] (Na(-), mean ± SEM n=3), 109 ± 25.4 nM; in experiment [1] (in the presence of sodium, rounded value quoted by the referee in peer review file), around 100 nM. The Canagliflozin binding in experiment [1] (Sodium 0 mM, replicates) is 0.5239 pmol/mg-protein and 0.5745 pmol/mg-protein and 0.6364 pmol/mg-protein; in experiment [1] (Sodium 1 mM, replicates), 0.4659 pmol/mg-protein and 0.5424 pmol/mg-protein and 0.6685 pmol/mg-protein; in experiment [1] (Sodium 10 mM, replicates), 0.8906 pmol/mg-protein and 0.8030 pmol/mg-protein and 0.9338 pmol/mg-protein; in experiment [1] (Sodium 100 mM, replicates), 0.9992 pmol/mg-protein and 1.5850 pmol/mg-protein and 1.3270 pmol/mg-protein. Further, in experiment [1] (absence vs presence of Na+), the “Bmax in the absence versus the presence of Na+ (in words)” value was “partially lower”.
